Laboratory results as given in US20230390265A1, “IRAK4 Inhibitors and Topical Uses Thereof” (Dermira, Inc., priority 2020, published 2023).
Entries after “also recorded” stand apart in the source; their conditions may differ.

Test system: TNFα protein expression
Assay: Skin resident immune cell assay (sRICA), LPS-stimulated human skin, TNFα protein
Type: cell-based
Settings: positive control, applied topically
Description: The anti-inflammatory activity of the IRAK4/TrkA inhibitors was determined in a skin resident immune cell assay (sRICA). In this model, human surgical skin waste was cultured in a transwell system, with the dermis in contact with cell culture media and the stratum corneum exposed to air. To perform the assay, each human skin sample was defatted and dermatomed to 750 μm. Next, 8 mm punch biopsies were obtained and placed in a membrane transwell. The biopsies were prepared with a barrier ring to contain the formulation and prevent leakage of the formulation. The transwells were inserted into culture wells with complete media, and a cocktail of cytokines and antibodies and/or inflammatory stimuli were added to promote skin resident immune cell polarization and/or elicitation of a specific inflammatory response. The transwells were treated with LPS as a positive control, a vehicle as a negative control, and various dual IRAK/TrkA inhibitors. TNFα protein expression was measured and the mean TNFα protein level in the LPS treated samples was set to 100%.
The Compounds were formulated at 80% saturated solubility. […]
Except for the 0.5% Compound 1/NAG6 formulations, all Round 2 formulations were manufactured at 80% saturation. […] Conditioned cell media was collected and assessed for expression of inflammatory proteins after 48 hours of exposure to LPS stimulation.

Compound: CCC(=O)O[C@]1(C(=O)CCl)[C@@H](C)C[C@H]2[C@@H]3CCC4=CC(=O)C=C[C@]4(C)[C@@]3(F)[C@@H](O)C[C@@]21C [Clobetasol]
- Effect on LPS-induced TNFα production / inflammation: significantly reduced inflammation back to baseline levels; also recorded: completely inhibited TNFα induction
